From ChEMBL document CHEMBL1201862, “PubChem BioAssay data set” (2004)
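48-hour exposure; five concentrations; linearly interpolated endpoints. GI50 is the concentration that inhibits growth by half.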 Activity calls are given as the source filed them. Rule as the data show it: active = GI50 up to about 1.1 µM and inactive = higher.

What was measured:
Test in all cases: NCI anticancer screen, dose series, 48 h
786-0 = tested on: 786-0
A549 = tested on: A549
ACHN = tested on: ACHN
BT-549 = tested on: BT-549
CAKI-1 = tested on: CAKI-1
CCRF-CEM = tested on: CCRF-CEM
COLO 205 = tested on: COLO 205
DU-145 = tested on: DU-145
EKVX = tested on: EKVX
HCC 2998 = tested on: HCC 2998
HCT-116 = tested on: HCT-116
HCT-15 = tested on: HCT-15
HL-60 = tested on: HL-60
HOP-62 = tested on: HOP-62
HOP-92 = tested on: HOP-92
HT-29 = tested on: HT-29
Hs-578T = tested on: Hs-578T
IGROV-1 = tested on: IGROV-1
K562 = tested on: K562
KM12 = tested on: KM12
M14 = tested on: M14
MCF7 = tested on: MCF7
MDA-MB-231 = tested on: MDA-MB-231
MDA-MB-435 = tested on: MDA-MB-435
MDA-N = tested on: MDA-N
MOLT-4 = tested on: MOLT-4
Malme-3M = tested on: Malme-3M
NCI-H226 = tested on: NCI-H226
NCI-H460 = tested on: NCI-H460
NCI-H522 = tested on: NCI-H522
NCI/ADR-RES = tested on: NCI/ADR-RES
OVCAR-3 = tested on: OVCAR-3
OVCAR-4 = tested on: OVCAR-4
OVCAR-5 = tested on: OVCAR-5
OVCAR-8 = tested on: OVCAR-8
PC-3 = tested on: PC-3
RPMI-8226 = tested on: RPMI-8226
RXF 393 = tested on: RXF 393
SF-268 = tested on: SF-268
SF-295 = tested on: SF-295
SF-539 = tested on: SF-539
SK-MEL-28 = tested on: SK-MEL-28
SK-MEL-2 = tested on: SK-MEL-2
SK-MEL-5 = tested on: SK-MEL-5
SK-OV-3 = tested on: SK-OV-3
SN12C = tested on: SN12C
SNB-19 = tested on: SNB-19
SNB-75 = tested on: SNB-75
SR = tested on: SR
SW-620 = tested on: SW-620
T47D = tested on: T47D
TK-10 = tested on: TK-10
U-251 = tested on: U-251
UACC-257 = tested on: UACC-257
UACC-62 = tested on: UACC-62
UO-31 = tested on: UO-31
A498 = tested on: A498
LOX IMVI = tested on: LOX IMVI
NCI-H23 = tested on: NCI-H23

O=C(O)c1cc2ccccc2c(/N=N/c2ccc(S(=O)(=O)Nc3ccccn3)cc2)c1O
GI50 (786-0): > 100 µM (inactive)
GI50 (A549): > 100 µM (inactive)
GI50 (ACHN): > 100 µM (inactive)
GI50 (BT-549): > 100 µM (inactive)
GI50 (CAKI-1): > 100 µM (inactive)
GI50 (CCRF-CEM): > 100 µM (inactive)
GI50 (COLO 205): > 100 µM (inactive)
GI50 (DU-145): > 100 µM (inactive)
GI50 (EKVX): > 100 µM (inactive)
GI50 (HCC 2998): > 100 µM (inactive)
GI50 (HCT-116): > 100 µM (inactive)
GI50 (HCT-15): > 100 µM
GI50 (HL-60): > 100 µM (inactive)
GI50 (HOP-62): > 100 µM (inactive)
GI50 (HOP-92): > 100 µM (inactive)
GI50 (HT-29): > 100 µM (inactive)
GI50 (Hs-578T): > 100 µM (inactive)
GI50 (IGROV-1): > 100 µM (inactive)
GI50 (K562): > 100 µM (inactive)
GI50 (KM12): > 100 µM (inactive)
GI50 (M14): > 100 µM (inactive)
GI50 (MCF7): > 100 µM (inactive)
GI50 (MDA-MB-231): > 100 µM (inactive)
GI50 (MDA-MB-435): > 100 µM (inactive)
GI50 (MDA-N): > 100 µM (inactive)
GI50 (MOLT-4): > 100 µM (inactive)
GI50 (Malme-3M): > 100 µM (inactive)
GI50 (NCI-H226): > 100 µM (inactive)
GI50 (NCI-H460): > 100 µM (inactive)
GI50 (NCI-H522): > 100 µM (inactive)
GI50 (NCI/ADR-RES): > 100 µM (inactive)
GI50 (OVCAR-3): > 100 µM (inactive)
GI50 (OVCAR-4): > 100 µM (inactive)
GI50 (OVCAR-5): > 100 µM (inactive)
GI50 (OVCAR-8): > 100 µM (inactive)
GI50 (PC-3): > 100 µM (inactive)
GI50 (RPMI-8226): > 100 µM (inactive)
GI50 (RXF 393): > 100 µM (inactive)
GI50 (SF-268): > 100 µM (inactive)
GI50 (SF-295): > 100 µM (inactive)
GI50 (SF-539): > 100 µM (inactive)
GI50 (SK-MEL-28): > 100 µM (inactive)
GI50 (SK-MEL-2): > 100 µM (inactive)
GI50 (SK-MEL-5): > 100 µM (inactive)
GI50 (SK-OV-3): > 100 µM (inactive)
GI50 (SN12C): > 100 µM (inactive)
GI50 (SNB-19): < 0.01 µM (active)
GI50 (SNB-75): > 100 µM (inactive)
GI50 (SR): > 100 µM (inactive)
GI50 (SW-620): > 100 µM (inactive)
GI50 (T47D): > 100 µM (inactive)
GI50 (TK-10): > 100 µM (inactive)
GI50 (U-251): > 100 µM (inactive)
GI50 (UACC-257): > 100 µM (inactive)
GI50 (UACC-62): > 100 µM (inactive)
GI50 (UO-31): > 100 µM (inactive)

Nc1c(C(=O)O)nnc2cc(Cl)ccc12
GI50 (786-0): > 100 µM (inactive)
GI50 (A498): 85.3 µM (inactive)
GI50 (A549): > 100 µM (inactive)
GI50 (ACHN): 97.5 µM (inactive)
GI50 (BT-549): > 100 µM (inactive)
GI50 (CAKI-1): > 100 µM (inactive)
GI50 (CCRF-CEM): > 100 µM (inactive)
GI50 (COLO 205): > 100 µM (inactive)
GI50 (DU-145): > 100 µM (inactive)
GI50 (EKVX): > 100 µM (inactive)
GI50 (HCC 2998): > 100 µM (inactive)
GI50 (HCT-116): > 100 µM (inactive)
GI50 (HCT-15): > 100 µM
GI50 (HL-60): > 100 µM (inactive)
GI50 (HOP-62): > 100 µM (inactive)
GI50 (HT-29): > 100 µM (inactive)
GI50 (Hs-578T): > 100 µM (inactive)
GI50 (IGROV-1): > 100 µM (inactive)
GI50 (K562): > 100 µM (inactive)
GI50 (KM12): > 100 µM (inactive)
GI50 (LOX IMVI): > 100 µM (inactive)
GI50 (M14): > 100 µM (inactive)
GI50 (MCF7): > 100 µM (inactive)
GI50 (MDA-MB-231): > 100 µM (inactive)
GI50 (MDA-MB-435): > 100 µM (inactive)
GI50 (MDA-N): > 100 µM (inactive)
GI50 (MOLT-4): > 100 µM (inactive)
GI50 (Malme-3M): > 100 µM (inactive)
GI50 (NCI-H226): > 100 µM (inactive)
GI50 (NCI-H23): > 100 µM (inactive)
GI50 (NCI-H460): > 100 µM (inactive)
GI50 (NCI-H522): > 100 µM (inactive)
GI50 (NCI/ADR-RES): > 100 µM (inactive)
GI50 (OVCAR-3): > 100 µM (inactive)
GI50 (OVCAR-4): > 100 µM (inactive)
GI50 (OVCAR-5): > 100 µM (inactive)
GI50 (OVCAR-8): > 100 µM (inactive)
GI50 (PC-3): > 100 µM (inactive)
GI50 (SF-268): > 100 µM (inactive)
GI50 (SF-295): > 100 µM (inactive)
GI50 (SF-539): > 100 µM (inactive)
GI50 (SK-MEL-2): > 100 µM (inactive)
GI50 (SK-MEL-5): > 100 µM (inactive)
GI50 (SK-OV-3): > 100 µM (inactive)
GI50 (SN12C): > 100 µM (inactive)
GI50 (SNB-19): > 100 µM (inactive)
GI50 (SNB-75): > 100 µM (inactive)
GI50 (SR): > 100 µM (inactive)
GI50 (SW-620): > 100 µM (inactive)
GI50 (T47D): > 100 µM (inactive)
GI50 (TK-10): > 100 µM (inactive)
GI50 (U-251): > 100 µM (inactive)
GI50 (UACC-257): > 100 µM (inactive)
GI50 (UACC-62): 32 µM (inactive)
GI50 (UO-31): > 100 µM (inactive)
